From patent publication US8563254B2, “Biomarkers of tumor pharmacodynamic response” (Novartis AG, priority 2009, dated 2013)

Assays:
GTL-16 cells [1] = experiment: Multiplexed bead-based 27-plex cytokine panel, GTL-16 culture supernatants; assay type: cell-based, human; conditions: 48 hr
Procedure: A malignant melanoma cell line A375 (American Type Culture Collection, Manassas, Va., USA) and gastric cancer cell line, GTL-16 (Prof Silvia Giordano, Institute for Cancer Research and Treatment, Turin, Italy) were cultured in RPMI 1640 supplemented with 10% FBS and 1% penicillin-streptomycin at 37° C. in 5% CO2 (GIBCO reagents, Invitrogen Corporation, Carlsbad, Calif., USA). Cell numbers were determined by ViCell™ XR Cell Viability Analyzer 2.03 (Beckman Coulter, Inc., Fullerton, Calif., USA). Cells were seeded in poly-D-lysine coated plates (BIOCOAT Cell Environments, Becton Dickinson Biosciences, San Jose, Calif., USA).
(§1) Human IL-8 levels in cell culture supernatants treated with NVP-AUY922 were initially assessed as part of a multiplexed bead-based cytokine panel (hu 27-plex panel I, Bio-rad Laboratories, Hercules, Calif., USA) with a BioPlex Suspension Array System (Bio-rad). Human IL-8 and mouse KC levels in serum derived from GTL-16 and A375 tumor-bearing mice treated with NVP-AUY922 were measured by single-plex cytokine bead-based assay (Milliplex, Millipore, Billerica, Mass., USA). The BioPlex system uses a liquid suspension array of beads. The beads align in a single file through a flow cell to the detector, where a red classification laser at a wavelength of 635 nm and a green reporter laser at a wavelength of 532 nm are used to identify each bead's spectral address and associated reporter signal, respectively.
In a screen for candidate secreted markers of Hsp90 inhibition, cell culture supernatants were collected from GTL-16 gastric carcinoma and A375 melanoma cells that were washed and treated for 48 hr with 1 μM NVP-AUY922 in fresh culture medium. These samples were analyzed by a multiplexed cytokine bead-based assay that included a panel of 27 human cytokines, the results of which are shown in FIG. 1. […] In addition to this empirical investigation using the bead-based immunoassay panel, in silica data mining was undertaken to identify secreted proteins that were regulated by previously reported Hsp90 client proteins; this investigation pointed to a number of candidates, including IL-8, consistent with the empirical results.

GTL-16 cells [2] = experiment: Quantitative RT-PCR of IL-8 mRNA, GTL-16; assay type: cell-based, human; conditions: GTL-16, 0.3 μM, 16 hr, treated versus untreated
Procedure: Total cellular RNA was extracted from the GTL-16 and A375 cell lines using RNeasy mini kit (Qiagen, Inc., Valencia, Calif., USA). Total RNA quantitation was carried out using a RiboGreen assay (Invitrogen Corporation, Carlsbad, Calif., USA). 1 μg of total RNA was reverse transcribed using AMV reverse transcriptase (Reverse Transcription Kit, Promega U.S., Madison, Wis., USA). A 20 μl reaction cocktail was prepared as follows; 1 μg total RNA in 10 μl of RNase, DNase-free H2O, 4 μl of 25 mM MgCl2, 2 μl of 10× reverse transcriptase buffer, 2 μl of 10 mM dNTP's, 1 μl of 500 μg ml^−1 random hexamers, 1.5 μl of 10 μl ml^−1, and 40 U μl^−1 0.5 μl of recombinant RNase Inhibitor. Real time PCR was performed using a 7900HT fast real-time PCR system (Applied Biosystems, Foster City, Calif., USA) using the Power SYBR Green PCR master mix (Applied Biosystems). The primers for IL-8 and GAPDH were: IL-8 sense: 5′-[…]-3′ (SEQ ID NO:3) and IL-8 antisense:
5′-[…]-3′ (SEQ ID NO:4); and GAPDH sense:
5′-[…]-3′ (SEQ ID NO:5), and GAPDH antisense;
5′-[…]-3′. (SEQ ID NO:6) The amplification process involved an initial 5 min denaturing step at 95° C. This was followed by annealing reactions for both IL-8 and GAPDH, of 45 s at 95° C. with 230 s at 68° C. for 34 cycles and 1 min at 95° C. with 1 min at 60° C. and 1 min 72° C. for 30 cycles, respectively. The final extension was 10 min at 72° C. […]

A375 tumor-bearing mice = experiment: Serum IL-8 / mouse KC in A375 mouse xenograft model; assay type: in vivo; set-up: drop of serum IL-8 levels / time at which serum IL-8 recovered to pre-treatment level: dose or concentration left out as unconfirmed
Procedure: The in vivo study was carried out in strict accordance with Swiss law for animal protection and was approved by the Swiss Cantonal Veterinary Office of Basel-Stadt. GTL-16 (4×10^6) and A375 cells (5×10^6) were inoculated subcutaneously in the right flank in 200 μl Hanks' balanced salt solution (HBSS) or PBS, respectively. Invasive procedures were performed under Forene anesthesia. All experiments were performed in female Harlan HsdNpa: Athymic Nude-nu mice (Laboratory Animal Services, Novartis Pharma AG, Basel). The animals were kept under optimized hygienic conditions with 12 hr dark, 12 hr light conditions. The animals were fed food and water ad libitum. […] Mice in the control group were injected with the vehicle (D5W). Serum was isolated and tumors dissected over the time course 0-168 hr. Tumors were cut in two halves. One half was paraffin embedded and the other snap frozen, and stored at −80° C.
as §1

## CCNC(=O)c1noc(-c2cc(C(C)C)c(O)cc2O)c1-c1ccc(CN2CCOCC2)cc1 [NVP-AUY922, 5-(2,4-Dihydroxy-5-isopropyl-phenyl)-4-(4-morhpolin-4-ylmethyl-phenyl)-isoxazole-3-carboxylic acid ethylamide]
GTL-16 cells [1]; GTL-16, 1 μM
  accumulation of FGF basic and MIP-1b: virtually unchanged
  accumulation of IL-1ra, IL-8, IL-17, Eotaxin, GM-CSF, IP-10, PDGF-bb and VEGF: decreased accumulation
  accumulation of IL-15: increased accumulation
GTL-16 cells [1]; GTL-16 culture supernatant, 1 μM, multiplexed assay
  IL-8 accumulation decreased: more than 80%
GTL-16 cells [2]
  decrease in IL-8 mRNA expression: 85%
A375 tumor-bearing mice
  time at which serum IL-8 recovered to pre-treatment level: 168 h
A375 tumor-bearing mice; 48 hr post-treatment
  drop of serum IL-8 levels: approximately 40%
A375 tumor-bearing mice; serum
  murine IL-8 levels, measured indirectly as mu KC: unchanged
